Experimental findings from patent publication US20170198006A1, “PRMT5 INHIBITORS AND USES THEREOF” (Epizyme, Inc., priority 2014, published 2017) are described below.

Bounds are passed on as bounds.

The target of one assay is T1, PRMT5/MEP50 (Homo sapiens, UniProt O14744).
T1 construct: Flag-PRMT5; made in house; host or cells: Spodoptera frugiperda (SF9), baculovirus
T1 sequence (O14744 with tags, fused parts or gaps): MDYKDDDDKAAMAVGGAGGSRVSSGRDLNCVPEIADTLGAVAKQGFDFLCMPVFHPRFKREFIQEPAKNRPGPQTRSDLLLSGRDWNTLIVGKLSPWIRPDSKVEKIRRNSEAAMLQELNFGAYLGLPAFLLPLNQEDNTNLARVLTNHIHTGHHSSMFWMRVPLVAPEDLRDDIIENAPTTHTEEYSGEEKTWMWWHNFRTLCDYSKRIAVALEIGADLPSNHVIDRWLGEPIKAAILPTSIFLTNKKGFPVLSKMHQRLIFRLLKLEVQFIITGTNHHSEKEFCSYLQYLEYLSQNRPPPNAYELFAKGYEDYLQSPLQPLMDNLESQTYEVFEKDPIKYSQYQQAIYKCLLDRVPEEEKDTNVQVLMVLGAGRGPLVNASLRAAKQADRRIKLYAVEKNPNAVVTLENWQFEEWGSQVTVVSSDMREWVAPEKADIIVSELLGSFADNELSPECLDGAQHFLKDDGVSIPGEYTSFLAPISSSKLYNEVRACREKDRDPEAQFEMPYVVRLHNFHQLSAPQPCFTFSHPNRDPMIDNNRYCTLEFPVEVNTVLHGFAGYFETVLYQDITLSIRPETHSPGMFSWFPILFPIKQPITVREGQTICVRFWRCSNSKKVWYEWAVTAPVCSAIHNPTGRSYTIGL
T1 sequence (Q9BQA1 with tags, fused parts or gaps partner limits assumed): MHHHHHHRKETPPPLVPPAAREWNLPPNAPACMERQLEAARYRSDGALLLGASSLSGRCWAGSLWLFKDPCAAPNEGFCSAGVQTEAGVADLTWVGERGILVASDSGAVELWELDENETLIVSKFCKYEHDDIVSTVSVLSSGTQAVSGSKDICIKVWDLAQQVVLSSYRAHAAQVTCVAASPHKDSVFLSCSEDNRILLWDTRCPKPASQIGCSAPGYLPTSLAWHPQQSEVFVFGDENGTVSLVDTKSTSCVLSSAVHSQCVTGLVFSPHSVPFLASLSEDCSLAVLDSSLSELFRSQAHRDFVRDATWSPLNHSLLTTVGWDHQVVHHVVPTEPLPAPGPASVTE
Description: PRMT5 Biochemical Assay (PRMT5/MEP50 enzyme assay on histone H4 peptide substrate, 3H-SAM Flashplate).
Settings: not given
From the text:
S-adenosylmethionine (SAM), S-adenosylhomocysteine (SAH), bicine, KCl, Tween20, dimethylsulfoxide (DMSO), bovine skin gelatin (BSG), and Tris(2-carboxyethyl)phosphine hydrochloride solution (TCEP) were purchased from Sigma-Aldrich at the highest level of purity possible. ^3H-SAM was purchase from American Radiolabeled Chemicals with a specific activity of 80 Ci/mmol. 384-well streptavidin Flashplates were purchased from PerkinElmer.
Peptide representative of human histone H4 residues 1-15 was synthesized with a C-terminal linker-affinity tag motif and a C-terminal amide cap by 21st Century Biochemicals.
The amplified genes were sublconed into pENTR/D/TEV (Life Technologies) and subsequently transferred by Gateway™ attL×attR recombination to pDEST8 baculvirus expression vector (Life Technologies).
Protein over-expression was accomplished by infecting exponentially growing Spodoptera frugiperda (SF9) cell culture at 1.2×10^6 cell/ml with a 5000 fold dilution of BIIC stock. Infections were carried out at 27° C. for 72 hours, harvested by centrifugation, and stored at −80° C. for purification.
Flag-PRMT5/6His-MeP50 was eluted with 300 mM Imidazole in the same buffer.
General Procedure for PRMT5/MEP50 Enzyme Assays on Peptide Substrates.
The assays were all performed in a buffer consisting of 20 mM Bicine (pH=7.6), 1 mM TCEP, 0.005% BSG, and 0.002% Tween20, prepared on the day of use. […] DMSO (1 ul) was added to Columns 11, 12, 23, 24, rows A-H for the maximum signal control and 1 ul of SAH, a known product and inhibitor of PRMT5/MEP50, was added to columns 11, 12, 23, 24, rows I-P for the minimum signal control. A cocktail (40 ul) containing the PRMT5/MEP50 enzyme and the peptide was added by Multidrop Combi (Thermo-Fisher). The compounds were allowed to incubate with PRMT5/MEP50 for 30 min at 25 degrees Celsius, then a cocktail (10 ul) containing ^3H-SAM was added to initiate the reaction (final volume=51 ul). […] The assays were stopped by the addition of non-radioactive SAM (10 ul) to a final concentration of 600 uM, which dilutes the ^3H-SAM to a level where its incorporation into the peptide substrate is no longer detectable. 50 ul of the reaction in the 384-well polypropylene plate was then transferred to a 384-well Flashplate and the biotinylated peptides were allowed to bind to the streptavidin surface for at least 1 hour before being washed three times with 0.1% Tween20 in a Biotek ELx405 plate washer. The plates were then read in a PerkinElmer TopCount plate reader to measure the quantity of ^3H-labeled peptide bound to the Flashplate surface, measured as disintegrations per minute (dpm) or alternatively, referred to as counts per minute (cpm).
Where dpm=disintegrations per minute, cmpd=signal in assay well, and min and max are the respective minimum and maximum signal controls.
Where top and bottom are the normally allowed to float, but may be fixed at 100 or 0 respectively in a 3-parameter fit. The Hill Coefficient normally allowed to float but may also be fixed at 1 in a 3-parameter fit. Y is the % inhibition and X is the compound concentration.
For `NCCCSC[C@H]1O[C@@H](n2cnc3c(N)ncnc32)[C@H](O)[C@@H]1O` [Compound 89-1], the IC50 (in general, the point on the concentration scale where inhibition reaches its midpoint) was under 0.1 µM.

The assay is the same for the next values; noted with them: PRMT5 biochemical assay; read-out: Biochemical IC50.
`O=C(CC1NC(N2CCC(O)(c3ccccc3)CC2)=NC1=O)Nc1ccc(Cl)cc1` (centres unmarked) [Compound 73-14]: the IC50 lay within 0.101 to 1 µM.
On the same count and under the same terms, then `CCN1CCN(C2=NC(=O)C(CC(=O)Nc3ccc(OC)cc3)N2)CC1` (centres unmarked) [Compound 11-14], with 1 to 10 µM; and `CC(C)c1ccc(NC(=O)CC2NC(N3CCN(c4ccccn4)CC3)=NC2=O)cc1` (centres unmarked) [Compound 16-14], with 1 to 10 µM.
Same read-out and setting: the result for `O=C(CC1NC(N2CCc3ccccc3C2)=NC1=O)Nc1ccccc1` (centres unmarked) [Compound 13-14] reads 1 to 10 µM; that for `CN(CCN1CCN(CCc2ccccc2)CC1)C[C@H]1O[C@@H](n2cnc3c(N)ncnc32)[C@H](O)[C@@H]1O` [Compound 45-1], 0.101 to 1 µM.
The same measure, in the same setting: the result for `NCCCCN(CC[C@H](N)C(=O)O)C[C@H]1O[C@@H](n2cnc3c(N)ncnc32)[C@H](O)[C@@H]1O` [Compound 24-1] reads under 0.1 µM; that for `Cc1ccc(C(=O)CC2NC(N3CCN(c4cccc(F)c4)CC3)=NC2=O)cc1` (centres unmarked) [Compound 31-14], 1 to 10 µM; that for `Cc1ccc(C(=O)CC2NC(N3CCN(Cc4ccccc4)CC3)=NC2=O)cc1` (centres unmarked) [Compound 28-14], 1 to 10 µM.
For `O=C(CC1NC(N2CCN(c3ccccc3)CC2)=NC1=O)Nc1ccc(Cl)cc1Cl` (centres unmarked) [Compound 58-14], the 50% inhibitory concentration (IC50) was 0.101 to 1 µM.
Turning to `CCN(CCc1ccc(Cl)cc1)CCN(C)C[C@H]1O[C@@H](n2cnc3c(N)ncnc32)[C@H](O)[C@@H]1O` [Compound 50-1], the half-maximal inhibitory concentration (IC50) was 0.101 to 1 µM.
For the molecule `COc1ccccc1C(O)CC1N=C(N2CCN(c3ccccc3)CC2)NC1=O` (centres unmarked) [Compound 54-14], the half-inhibitory concentration (IC50) lay within 10 to 50 µM.
On to `CN(CCNCc1ccccc1F)C[C@H]1O[C@@H](n2cnc3c(N)ncnc32)[C@H](O)[C@@H]1O` [Compound 15-1], for which the IC50 was under 0.1 µM.
The same measure, in the same setting: then `COc1ccccc1C(=O)CC1NC(N2CCC(O)(c3ccccc3)CC2)=NC1=O` (centres unmarked) [Compound 55-14], with 0.101 to 1 µM; and `CC(=O)N(CCNCCc1ccc(Cl)cc1)C[C@H]1O[C@@H](n2cnc3c(N)ncnc32)[C@H](O)[C@@H]1O` [Compound 76-1], with 0.101 to 1 µM.
On the same count and under the same terms, then `CC(CCCN(CCN)C[C@H]1O[C@@H](n2cnc3c(N)ncnc32)[C@H](O)[C@@H]1O)C(=O)O` (some centres unmarked) [Compound 33-1], with under 0.1 µM; and `CN(CCO)CCN(C)C[C@H]1O[C@@H](n2cnc3c(N)ncnc32)[C@H](O)[C@@H]1O` [Compound 46-1], with 0.101 to 1 µM; and `O=C(CC1NC(N2CCC(c3ccccc3)CC2)=NC1=O)Nc1ccc(Cl)cc1` (centres unmarked) [Compound 57-14], with 1 to 10 µM.
As to `O=C(CC1NC(N2CCN(c3ccccc3)CC2)=NC1=O)NC1CCCCC1` (centres unmarked) [Compound 52-14], the IC50 lay within 10 to 50 µM.
On the same count and under the same terms, then `CN(CCN(C)C[C@H]1O[C@@H](n2cnc3c(N)ncnc32)[C@H](O)[C@@H]1O)Cc1ccccc1Cl` [Compound 6-1], with 0.101 to 1 µM; and `CN(CCNCc1ccco1)C[C@H]1O[C@@H](n2cnc3c(N)ncnc32)[C@H](O)[C@@H]1O` [Compound 14-1], with 0.101 to 1 µM.
Still for that read-out and setting: the result for `NCCN(CCC[C@H](N)CO)C[C@H]1O[C@@H](n2cnc3c(N)ncnc32)[C@H](O)[C@@H]1O` [Compound 35-1] reads 0.101 to 1 µM; that for `COc1cccc(CN(C)CCN(C)C[C@H]2O[C@@H](n3cnc4c(N)ncnc43)[C@H](O)[C@@H]2O)c1` [Compound 20-1], 0.101 to 1 µM; that for `COc1cc(NC(=O)CC2NC(N3CCN(c4ccccc4)CC3)=NC2=O)ccc1Cl` (centres unmarked) [Compound 64-14], 1 to 10 µM.
On the same count and under the same terms, the result for `CCc1ccc(NC(=O)CC2NC(N3CCN(CC)CC3)=NC2=O)cc1` (centres unmarked) [Compound 19-14] reads 1 to 10 µM; that for `CN(CCNCCc1ccc(Cl)cc1)C[C@H]1O[C@@H](n2cnc3c(N)ncnc32)[C@H](O)[C@@H]1O` [Compound 61-1], under 0.1 µM.
As for `O=C(CC1NC(N2CCN(c3ccccc3)CC2)=NC1=O)Nc1ccc(Cl)c(Cl)c1` (centres unmarked) [Compound 59-14], the IC50 was in the range of 0.101 to 1 µM.
Take `Nc1ncnc2c1ncn2[C@@H]1O[C@H](CSCCC(N)CO)[C@@H](O)[C@H]1O` (some centres unmarked) [Compound 90-1]: the IC50 was under 0.1 µM.
Same read-out and setting: then `Cc1ccc(C(=O)CC2NC(N3CCc4ccccc4C3)=NC2=O)cc1` (centres unmarked) [Compound 29-14], with 0.101 to 1 µM; and `CN(CCNCc1ccc(OC(F)F)cc1)C[C@H]1O[C@@H](n2cnc3c(N)ncnc32)[C@H](O)[C@@H]1O` [Compound 1-1], with 0.101 to 1 µM; and `CN(CCNCc1ccc(Cl)c(Cl)c1)C[C@H]1O[C@@H](n2cnc3c(N)ncnc32)[C@H](O)[C@@H]1O` [Compound 13-1], with 0.101 to 1 µM.
On to `Nc1ncnc2c1ncn2[C@@H]1O[C@H](CSC[C@H](N)C(=O)O)[C@@H](O)[C@H]1O` [Compound 88-1], for which the IC50 lay within 0.101 to 1 µM.
Same read-out and setting: then `CN(CCC[C@@H](N)C(=O)O)C[C@H]1O[C@@H](n2cnc3c(N)ncnc32)[C@H](O)[C@@H]1O` [Compound 32-1], with 0.101 to 1 µM; and `CC(C)N(CCNCCc1ccc(Cl)cc1)C[C@H]1O[C@@H](n2cnc3c(N)ncnc32)[C@H](O)[C@@H]1O` [Compound 77-1], with 0.101 to 1 µM.
The same measure, in the same setting: then `CC(CO)NCCN(C)C[C@H]1O[C@@H](n2cnc3c(N)ncnc32)[C@H](O)[C@@H]1O` (some centres unmarked) [Compound 58-1], with under 0.1 µM; and `O=C(CC1NC(N2CCN(c3ccccc3)CC2)=NC1=O)Nc1ccc2c(c1)OCO2` (centres unmarked) [Compound 65-14], with 10 to 50 µM.
Same read-out and setting: then `O=C(CC1NC(N2CCN(c3ccccc3)CC2)=NC1=O)Nc1ccccc1` (centres unmarked) [Compound 18-14], with 1 to 10 µM.
For `Cc1ccc(C(=O)CC2NC(N3CCN(c4ccccn4)CC3)=NC2=O)cc1` (centres unmarked) [Compound 33-14], the half-inhibitory concentration (IC50) is 1 to 10 µM.
On the same count and under the same terms, the result for `CC(C)N(CCCN)C[C@H]1O[C@@H](n2cnc3c(N)ncnc32)[C@H](O)[C@@H]1O` [Compound 25-1] reads 0.101 to 1 µM.
On the same count and under the same terms, the result for `CN(CCN(C)C[C@H]1O[C@@H](n2cnc3c(N)ncnc32)[C@H](O)[C@@H]1O)Cc1ccc(Cl)cc1` [Compound 10-1] reads 0.101 to 1 µM; that for `CC(CN)N(C)C[C@H]1O[C@@H](n2cnc3c(N)ncnc32)[C@H](O)[C@@H]1O` (some centres unmarked) [Compound 28-1], 0.101 to 1 µM; that for `CC1CCCCN1CCCNCCN(C)C[C@H]1O[C@@H](n2cnc3c(N)ncnc32)[C@H](O)[C@@H]1O` (some centres unmarked) [Compound 66-1], 0.101 to 1 µM.
With `Cc1ccc(C(=O)CC2NC(N3CCN(c4ccncc4)CC3)=NC2=O)cc1` (centres unmarked) [Compound 34-14], the half-maximal inhibitory concentration (IC50) lay within 10 to 50 µM.
Still for that read-out and setting: then `CN(CCN(CC[C@H](N)C(=O)OCc1ccccc1)C[C@H]1O[C@@H](n2cnc3c(N)ncnc32)[C@H](O)[C@@H]1O)C(=O)OCc1ccccc1` [Compound 49-1], with under 0.1 µM; and `CNCCNC[C@H]1O[C@@H](n2cnc3c(N)ncnc32)[C@H](O)[C@@H]1O` [Compound 64-1], with 0.101 to 1 µM; and `CCOC(=O)c1ccc(NC(=O)CC2NC(N3CCN(C)CC3)=NC2=O)cc1` (centres unmarked) [Compound 24-14], with 10 to 50 µM.
With `O=C(CC1NC(N2CC=C(c3ccccc3)CC2)=NC1=O)Nc1ccc(Cl)cc1` (centres unmarked) [Compound 72-14], the half-maximal inhibitory concentration (IC50) was 0.101 to 1 µM.
Still for that read-out and setting: then `COCC(C)NCCN(C)C[C@H]1O[C@@H](n2cnc3c(N)ncnc32)[C@H](O)[C@@H]1O` (some centres unmarked) [Compound 67-1], with 0.101 to 1 µM; and `O=C(CC1NC(N2CCN(c3ccccc3)CC2)=NC1=O)c1ccc(Cl)cc1` (centres unmarked) [Compound 42-14], with 0.101 to 1 µM; and `O=C(CC1NC(N2CCc3ccccc3C2)=NC1=O)Nc1ccc(Cl)cc1` (centres unmarked) [Compound 56-14], with 0.101 to 1 µM.
In the case of `Nc1ncnc2c1ncn2[C@@H]1O[C@H](CSCC[C@H](N)CO)[C@@H](O)[C@H]1O` [Compound 91-1, (2S, 3S, 4R, 5R)-2-((((S)-3-amino-4-hydroxybutyl)thio)methyl)-5-(6-amino-9H-purin-9-yl)tetrahydrofuran-3,4-diol], the IC50 was under 0.1 µM.
Same read-out and setting: then `O=C(CC1NC(N2CCN(c3ccccc3)CC2)=NC1=O)Nc1ccccc1Br` (centres unmarked) [Compound 68-14], with 10 to 50 µM.
As to `COc1ccccc1C(=O)CC1NC(N2Cc3ccccc3C2)=NC1=O` (centres unmarked) [Compound 71-14], the IC50 fell in the range of 1 to 10 µM.
